molecular target: T1, GLP-1R (Homo sapiens, UniProt P43220); assay: EC20 GLP-1(9-36) PAM cAMP assay: dose response of compound in the presence of fixed concentration of GLP-1(9-36); format: cell-based; conditions: dose response of compound in presence of fixed concentration of GLP-1(9-36), GLP-1R CRE-bla CHO-K1 cells, read-out: EC20 GLP-1(9-36) PAM EC50
T1 construct: host or cells: GLP-1R CRE-bla CHO-K1 cells
Outline: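 Positive allosteric modulation read as cAMP accumulation: compound titrations (12 points) combined with an EC20 level of GLP-1(9-36) on CHO-K1 GLP-1R CRE-bla cells, IBMX present, 30 min, 37 °C, pH 7.4 buffer. Luminescence converted to cAMP via standards; non-linear fit gave EC50 and Emax.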

T1 sequence (P43220 24-463): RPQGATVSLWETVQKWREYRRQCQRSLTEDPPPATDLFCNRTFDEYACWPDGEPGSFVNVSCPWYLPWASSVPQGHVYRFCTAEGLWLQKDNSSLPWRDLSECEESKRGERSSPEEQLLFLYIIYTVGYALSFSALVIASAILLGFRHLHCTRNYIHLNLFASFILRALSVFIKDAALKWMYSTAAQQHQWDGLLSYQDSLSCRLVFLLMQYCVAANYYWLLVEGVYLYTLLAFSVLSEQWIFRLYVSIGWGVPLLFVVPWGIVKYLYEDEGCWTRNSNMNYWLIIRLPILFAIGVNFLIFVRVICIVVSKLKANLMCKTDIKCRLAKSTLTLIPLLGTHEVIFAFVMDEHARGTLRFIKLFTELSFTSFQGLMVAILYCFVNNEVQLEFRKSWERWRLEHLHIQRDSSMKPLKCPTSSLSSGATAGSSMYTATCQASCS
T1 sequence (P01275 100-127 partner limits assumed): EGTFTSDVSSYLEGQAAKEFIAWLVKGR

Compound | EC50
CCCCCCCOc1ccc(-c2cnc(-c3ccc(C[C@H](NC(=O)c4ccc(C(C)(C)C)cc4)C(=O)N4C[C@H](O)C[C@@H]4C(=O)O)cc3)nc2)cc1 [Compound 585] | 0.8 to 2.5 µM
CCCCCCCOc1ccc(-c2cnc(-c3ccc(C[C@H](NC(=O)c4ccc(C(C)(C)C)cc4)C(=O)N4CC[C@@H](C(=O)O)C4)cc3)nc2)cc1 [Compound 588] | 0.8 to 2.5 µM
CCCCCCCOc1ccc(-c2cnc(-c3ccc(C[C@H](NC(=O)c4ccc(C(C)(C)C)cc4)C(=O)N[C@H](CC(=O)O)C(=O)NC)cc3)nc2)cc1 [Compound 589] | 0.8 to 2.5 µM
CCCCCCCOc1ccc(-c2cnc(-c3ccc(C[C@H](NC(=O)c4ccc(C(C)(C)C)s4)C(=O)NC(Cc4nccs4)C(=O)O)cc3)nc2)cc1 (some centres unmarked) [Compound 592] | 0.8 to 2.5 µM
CCCCCCCOc1ccc(-c2cnc(-c3ccc(C[C@H](NC(=O)c4ccc(C(C)(C)C)s4)C(=O)NC(C(=O)O)c4ccccc4C(F)(F)F)cc3)nc2)cc1 (some centres unmarked) [Compound 596] | 0.8 to 2.5 µM
CCCCCCCOc1ccc(-c2cnc(-c3ccc(C[C@H](NC(=O)c4ccc(C(C)(C)C)s4)C(=O)N[C@@H](Cc4ccc(O)c(O)c4)C(=O)O)cc3)nc2)cc1 [Compound 601] | 0.8 to 2.5 µM
CCCCCCCOc1ccc(-c2cnc(-c3ccc(C[C@H](NC(=O)c4ccc(C(C)(C)C)s4)C(=O)NC4CC(N)C4)cc3)nc2)cc1 (some centres unmarked) [Compound 603] | 0.8 to 2.5 µM
CCCCCCCOc1ccc(-c2cnc(-c3ccc(C[C@H](NC(=O)c4ccc(C(C)(C)C)s4)C(=O)NC4(C(=O)O)CC4)cc3)nc2)cc1 [Compound 604] | 0.8 to 2.5 µM
CCCCCCCOc1ccc(-c2cnc(-c3ccc(C[C@H](NC(=O)c4ccc(C(C)(C)C)s4)C(=O)NCC4(C(=O)O)CCNCC4)cc3)nc2)cc1 [Compound 606] | 0.8 to 2.5 µM
CCCCCCCOc1ccc(-c2cnc(-c3ccc(C[C@H](NC(=O)c4ccc(C(C)(C)C)s4)C(=O)N4CC(CC(=O)O)C4)cc3)nc2)cc1 [Compound 607] | 0.8 to 2.5 µM
CCCCCCCOc1ccc(-c2cnc(-c3ccc(C[C@H](NC(=O)c4ccc(C(C)(C)C)s4)C(=O)NC4CCC(C(=O)O)C4)cc3)nc2)cc1 (some centres unmarked) [Compound 608] | 0.8 to 2.5 µM
CCCCCCCOc1ccc(-c2cnc(-c3ccc(C[C@H](NC(=O)c4ccc(C(C)(C)C)s4)C(=O)N4CCC(CC(=O)O)C4)cc3)nc2)cc1 (some centres unmarked) [Compound 613] | 0.8 to 2.5 µM
CCCCCCCOc1ccc(-c2cnc(-c3ccc(C[C@H](NC(=O)c4ccc(C(C)(C)C)s4)C(=O)N4C(C(=O)O)CCC4C(=O)O)cc3)nc2)cc1 (some centres unmarked) [Compound 614] | 0.8 to 2.5 µM
CCCCCCCOc1ccc(-c2cnc(-c3ccc(C[C@H](NC(=O)c4ccc(C(C)(C)C)s4)C(=O)NC(Cc4ccc(Cl)cc4)C(=O)O)cc3)nc2)cc1 (some centres unmarked) [Compound 615] | 5 to 10 µM
CCCCCCCOc1ccc(-c2cnc(-c3ccc(C[C@H](NC(=O)c4ccc(C(C)(C)C)s4)C(=O)N[C@@H](Cc4cccnc4)C(=O)O)cc3)nc2)cc1 [Compound 616] | 0.8 to 2.5 µM
CCCCCCCOc1ccc(-c2cnc(-c3ccc(C[C@H](NC(=O)c4ccc(C(C)(C)C)s4)C(=O)NC(C(=O)O)c4ccc(C(F)(F)F)cc4)cc3)nc2)cc1 (some centres unmarked) [Compound 618] | 5 to 10 µM
CCCCCCCOc1ccc(-c2cnc(-c3ccc(C[C@H](NC(=O)c4ccc(C(C)(C)C)s4)C(=O)NC(C(=O)O)c4ccc(OC)cc4)cc3)nc2)cc1 (some centres unmarked) [Compound 619] | 0.8 to 2.5 µM
CCCCCCCOc1ccc(-c2cnc(-c3ccc(C[C@H](NC(=O)c4ccc(C(C)(C)C)s4)C(=O)N[C@H](C(=O)O)C(C)(C)C)cc3)nc2)cc1 [Compound 620] | 5 to 10 µM
CCCCCCCOc1ccc(-c2cnc(-c3ccc(C[C@H](NC(=O)c4ccc(C(C)(C)C)s4)C(=O)N4CCCC4CC(=O)O)cc3)nc2)cc1 (some centres unmarked) [Compound 621] | 2.5 to 5 µM
CCCCCCCOc1ccc(-c2cnc(-c3ccc(C[C@H](NC(=O)c4ccc(C(C)(C)C)cc4)C(=O)N4C[C@H](N(C)C)C[C@H]4C(=O)O)cc3)nc2)cc1 [Compound 622] | 0.8 to 2.5 µM
CCCCCCCOc1ccc(-c2cnc(-c3ccc(C[C@H](NC(=O)c4ccc(C(C)(C)C)cc4)C(=O)N4C[C@H](OC(C)(C)C)C[C@H]4C(=O)O)cc3)nc2)cc1 [Compound 623] | 0.8 to 2.5 µM
CCCCCCCOc1ccc(-c2cnc(-c3ccc(C[C@H](NC(=O)c4ccc(C(C)(C)C)s4)C(=O)N[C@@H](Cc4cscn4)C(=O)O)cc3)nc2)cc1 [Compound 627] | < 0.8 µM
CCCCCCCOc1ccc(-c2cnc(-c3ccc(C[C@H](NC(=O)c4ccc(C(C)(C)C)s4)C(=O)N[C@@H](Cc4ccccn4)C(=O)O)cc3)nc2)cc1 [Compound 628] | 0.8 to 2.5 µM
CCCCCCCOc1ccc(-c2cnc(-c3ccc(C[C@H](NC(=O)c4ccc(C(C)(C)C)s4)C(=O)NC(C(=O)O)c4cccc(OC)c4)cc3)nc2)cc1 (some centres unmarked) [Compound 629] | 0.8 to 2.5 µM
CCCCCCCOc1ccc(-c2cnc(-c3ccc(C[C@H](NC(=O)c4ccc(C(C)(C)C)s4)C(=O)N[C@H](CC(=O)O)C(=O)NC)cc3)nc2)cc1 [Compound 630] | < 0.8 µM
CCCCCCCOc1ccc(-c2cnc(-c3ccc(C[C@H](NC(=O)c4ccc(C(C)(C)C)s4)C(=O)N4CC(C)C(C(=O)O)C4)cc3)nc2)cc1 (some centres unmarked) [Compound 631] | 0.8 to 2.5 µM
CCCCCCCOc1ccc(-c2cnc(-c3ccc(C[C@H](NC(=O)c4ccc(C(C)(C)C)cc4)C(=O)N4CC[C@H](C(=O)O)C4)cc3)nc2)cc1 [Compound 632] | 0.8 to 2.5 µM
CCCCCCCOc1ccc(-c2cnc(-c3ccc(C[C@H](NC(=O)c4ccc(C(C)(C)C)s4)C(=O)NC(CCCC(=O)O)C(=O)O)cc3)nc2)cc1 (some centres unmarked) [Compound 633] | 0.8 to 2.5 µM
CCCCCCCOc1ccc(-c2cnc(-c3ccc(C[C@H](NC(=O)c4ccc(C(C)(C)C)s4)C(=O)NC(C(=O)O)C(O)c4ccccc4)cc3)nc2)cc1 (some centres unmarked) [Compound 634] | < 0.8 µM

Continued, values first:

EC50 | Compound
< 0.8 µM | CCCCCCCOc1ccc(-c2cnc(-c3ccc(C[C@H](NC(=O)c4ccc(C(C)(C)C)cc4)C(=O)N4C[C@@H](O)C[C@@H]4C(=O)O)cc3)nc2)cc1 [Compound 586]
< 0.8 µM | CCCCCCCOc1ccc(-c2cnc(-c3ccc(C[C@H](NC(=O)c4ccc(C(C)(C)C)cc4)C(=O)N4C[C@@H](O)C[C@H]4C(=O)O)cc3)nc2)cc1 [Compound 587]
< 0.8 µM | CCCCCCCOc1ccc(-c2cnc(-c3ccc(C[C@H](NC(=O)c4ccc(C(C)(C)C)cc4)C(=O)N4CC(C(=O)O)C4)cc3)nc2)cc1 [Compound 590, (S)-1-(2-(4-(tert-butyl)benzamido)-3-(4-(5-(4-(heptyloxy)phenyl)pyrimidin-2-yl)phenyl)propanoyl)azetidine-3-carboxylic acid]
< 0.8 µM | CCCCCCCOc1ccc(-c2cnc(-c3ccc(C[C@H](NC(=O)c4ccc(C(C)(C)C)cc4)C(=O)N[C@H](CC(=O)NC)C(=O)O)cc3)nc2)cc1 [Compound 591]
< 0.8 µM | CCCCCCCOc1ccc(-c2cnc(-c3ccc(C[C@H](NC(=O)c4ccc(C(C)(C)C)s4)C(=O)N[C@@H](Cc4cn(C)cn4)C(=O)O)cc3)nc2)cc1 [Compound 593]
< 0.8 µM | CCCCCCCOc1ccc(-c2cnc(-c3ccc(C[C@H](NC(=O)c4ccc(C(C)(C)C)s4)C(=O)N[C@@H](Cn4cccn4)C(=O)O)cc3)nc2)cc1 [Compound 594]
< 0.8 µM | CCCCCCCOc1ccc(-c2cnc(-c3ccc(C[C@H](NC(=O)c4ccc(C(C)(C)C)s4)C(=O)NC(COC)C(=O)O)cc3)nc2)cc1 (some centres unmarked) [Compound 595]
< 0.8 µM | CCCCCCCOc1ccc(-c2cnc(-c3ccc(C[C@H](NC(=O)c4ccc(C(C)(C)C)s4)C(=O)NC(CCS(C)(=O)=O)C(=O)O)cc3)nc2)cc1 (some centres unmarked) [Compound 597]
< 0.8 µM | CCCCCCCOc1ccc(-c2cnc(-c3ccc(C[C@H](NC(=O)c4ccc(C(C)(C)C)s4)C(=O)NC(C(=O)O)c4c(C)n[nH]c4C)cc3)nc2)cc1 (some centres unmarked) [Compound 598]
< 0.8 µM | CCCCCCCOc1ccc(-c2cnc(-c3ccc(C[C@H](NC(=O)c4ccc(C(C)(C)C)s4)C(=O)N4CCC4C(=O)O)cc3)nc2)cc1 (some centres unmarked) [Compound 599]
< 0.8 µM | CCCCCCCOc1ccc(-c2cnc(-c3ccc(C[C@H](NC(=O)c4ccc(C(C)(C)C)s4)C(=O)NC(C(=O)O)c4cccs4)cc3)nc2)cc1 (some centres unmarked) [Compound 600]
< 0.8 µM | CCCCCCCOc1ccc(-c2cnc(-c3ccc(C[C@H](NC(=O)c4ccc(C(C)(C)C)s4)C(=O)NC4CC(C(=O)O)C4)cc3)nc2)cc1 (some centres unmarked) [Compound 602]
< 0.8 µM | CCCCCCCOc1ccc(-c2cnc(-c3ccc(C[C@H](NC(=O)c4ccc(C(C)(C)C)s4)C(=O)NCC4(C(=O)OC)CCNCC4)cc3)nc2)cc1 [Compound 605]
< 0.8 µM | CCCCCCCOc1ccc(-c2cnc(-c3ccc(C[C@H](NC(=O)c4ccc(C(C)(C)C)s4)C(=O)NC(CCCC)C(=O)O)cc3)nc2)cc1 (some centres unmarked) [Compound 609]
< 0.8 µM | CCCCCCCOc1ccc(-c2cnc(-c3ccc(C[C@H](NC(=O)c4ccc(C(C)(C)C)s4)C(=O)N4CC=CC4C(=O)O)cc3)nc2)cc1 (some centres unmarked) [Compound 610]
< 0.8 µM | CCCCCCCOc1ccc(-c2cnc(-c3ccc(C[C@H](NC(=O)c4ccc(C(C)(C)C)s4)C(=O)NC(Cc4ccccc4)C(=O)O)cc3)nc2)cc1 (some centres unmarked) [Compound 611]
< 0.8 µM | CCCCCCCOc1ccc(-c2cnc(-c3ccc(C[C@H](NC(=O)c4ccc(C(C)(C)C)s4)C(=O)N4C[C@H](O)C[C@H]4C(=O)O)cc3)nc2)cc1 [Compound 612]
< 0.8 µM | CCCCCCCOc1ccc(-c2cnc(-c3ccc(C[C@H](NC(=O)c4ccc(C(C)(C)C)s4)C(=O)N[C@@H](Cc4cccnc4)C(=O)O)cc3)nc2)cc1 [Compound 617]
< 0.8 µM | CCCCCCCOc1ccc(-c2cnc(-c3ccc(C[C@H](NC(=O)c4ccc(C(C)(C)C)cc4)C(=O)N4CC(OC)CC4C(=O)O)cc3)nc2)cc1 (some centres unmarked) [Compound 624]
< 0.8 µM | CCCCCCCOc1ccc(-c2cnc(-c3ccc(CC(NC(=O)c4ccc(C(C)(C)C)s4)C(=O)N4CCC(C(=O)O)C4)cc3)nc2)cc1 (centres unmarked) [Compound 625]
< 0.8 µM | CCCCCCCOc1ccc(-c2cnc(-c3ccc(C[C@H](NC(=O)c4ccc(C(C)(C)C)s4)C(=O)NC(Cc4c[nH]c5ncccc45)C(=O)O)cc3)nc2)cc1 (some centres unmarked) [Compound 626]

From US10034886B2, “GLP-1 receptor modulators” (Celgene International II SÀRL, priority 2014, dated 2018)
